Measurements: PubChem BioAssay AID2060505 (Molecular Pharmacology Branch, DTP, NCI, 2025)

Tested on: 633275-114-R-J1-PDC complex spheroids, viability
Assay: Anticancer human tumor 633275-114-R-J1-PDC patient-derived endometrial adenocarcinoma cell line growth inhibition [GQUAD]
Conditions: for IC50: curve of first compound; for viability, T/C: stronger effect = lower value
How it was run: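 Viability of tumor cells grown as complex spheroids with endothelial and stromal cells, exposed to drug combinations. Top concentration at or near clinical Cmax (else 10 microM), diluted in half-log increments.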

[1] = second compound 0.0316 µM, first compound 0.0316 µM
[2] = second compound 0.0316 µM, first compound 0.1 µM
[3] = second compound 0.0316 µM, first compound 0.316 µM
[4] = second compound 0.0316 µM, first compound 1 µM
[5] = second compound 0.0316 µM, first compound 3.16 µM
[6] = second compound 0.0316 µM, first compound 10 µM
[7] = second compound 0.1 µM, first compound 0.0316 µM
[8] = second compound 0.1 µM, first compound 0.1 µM
[9] = second compound 0.1 µM, first compound 0.316 µM
[10] = second compound 0.1 µM, first compound 1 µM
[11] = second compound 0.1 µM, first compound 3.16 µM
[12] = second compound 0.1 µM, first compound 10 µM
[13] = second compound 0.316 µM, first compound 0.0316 µM
[14] = second compound 0.316 µM, first compound 0.1 µM
[15] = second compound 0.316 µM, first compound 0.316 µM
[16] = second compound 0.316 µM, first compound 1 µM
[17] = second compound 0.316 µM, first compound 3.16 µM
[18] = second compound 0.316 µM, first compound 10 µM
[19] = second compound 1 µM, first compound 0.0316 µM
[20] = second compound 1 µM, first compound 0.1 µM
[21] = second compound 1 µM, first compound 0.316 µM
[22] = second compound 1 µM, first compound 1 µM
[23] = second compound 1 µM, first compound 3.16 µM
[24] = second compound 1 µM, first compound 10 µM
[25] = second compound 3.16 µM, first compound 0.0316 µM
[26] = second compound 3.16 µM, first compound 0.1 µM
[27] = second compound 3.16 µM, first compound 0.316 µM
[28] = second compound 3.16 µM, first compound 1 µM
[29] = second compound 3.16 µM, first compound 3.16 µM
[30] = second compound 3.16 µM, first compound 10 µM
[31] = second compound 10 µM, first compound 0.0316 µM
[32] = second compound 10 µM, first compound 0.1 µM
[33] = second compound 10 µM, first compound 0.316 µM
[34] = second compound 10 µM, first compound 1 µM
[35] = second compound 10 µM, first compound 3.16 µM
[36] = second compound 10 µM, first compound 10 µM
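Also: spheroids exposed to the agents for seven days.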
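For viability, T/C in this document: percent of DMSO vehicle control viability which is 100%.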

## C#Cc1c(F)ccc2cc(O)cc(-c3ncc4c(N5CC6CCC(C5)N6)nc(OCC56CCCN5CC(F)C6)nc4c3F)c12 (stereo unspecified) + Cc1[nH]c2ccc(F)cc2c1-c1nc2c3cccnc3c3ncccc3c2[nH]1
Second compound 0.0316 µM
  IC50: > 10 µM
Second compound 0.1 µM
  IC50: > 10 µM
Second compound 0.316 µM
  IC50: > 10 µM
Second compound 1 µM
  IC50: > 10 µM
Second compound 3.16 µM
  IC50: 4.83 µM
Second compound 10 µM
  IC50: 4.06 µM
[1]
  viability, T/C: 103%
[2]
  viability, T/C: 89.9%
[3]
  viability, T/C: 93.8%
[4]
  viability, T/C: 81.1%
[5]
  viability, T/C: 75.7%
[6]
  viability, T/C: 60.6%
[7]
  viability, T/C: 89.7%
[8]
  viability, T/C: 107%
[9]
  viability, T/C: 83.7%
[10]
  viability, T/C: 88.4%
[11]
  viability, T/C: 69.8%
[12]
  viability, T/C: 64%
[13]
  viability, T/C: 89.3%
[14]
  viability, T/C: 86.7%
[15]
  viability, T/C: 82.7%
[16]
  viability, T/C: 81.1%
[17]
  viability, T/C: 77.5%
[18]
  viability, T/C: 60.6%
[19]
  viability, T/C: 78.8%
[20]
  viability, T/C: 82%
[21]
  viability, T/C: 82.5%
[22]
  viability, T/C: 74.6%
[23]
  viability, T/C: 71.5%
[24]
  viability, T/C: 56.6%
[25]
  viability, T/C: 63.5%
[26]
  viability, T/C: 66.1%
[27]
  viability, T/C: 65.7%
[28]
  viability, T/C: 66.2%
[29]
  viability, T/C: 52%
[30]
  viability, T/C: 41.1%
[31]
  viability, T/C: 58%
[32]
  viability, T/C: 60.7%
[33]
  viability, T/C: 60.7%
[34]
  viability, T/C: 62.4%
[35]
  viability, T/C: 52.8%
[36]
  viability, T/C: 34.7%

## CC(=O)O[C@H]1C(=O)[C@@]2(C)[C@H]([C@H](OC(=O)c3ccccc3)[C@]3(O)C[C@H](OC(=O)[C@H](O)[C@@H](NC(=O)c4ccccc4)c4ccccc4)C(C)=C1C3(C)C)[C@]1(OC(C)=O)CO[C@@H]1C[C@@H]2O + Cc1[nH]c2ccc(F)cc2c1-c1nc2c3cccnc3c3ncccc3c2[nH]1
Second compound 0.0316 µM
  IC50: 0.0329 µM
Second compound 0.1 µM
  IC50: < 0.0316 µM
Second compound 0.316 µM
  IC50: < 0.0316 µM
Second compound 1 µM
  IC50: < 0.0316 µM
Second compound 3.16 µM
  IC50: < 0.0316 µM
Second compound 10 µM
  IC50: < 0.0316 µM
[1]
  viability, T/C: 50.9%
[2]
  viability, T/C: 25.6%
[3]
  viability, T/C: 20.8%
[4]
  viability, T/C: 19.7%
[5]
  viability, T/C: 20.6%
[6]
  viability, T/C: 18.9%
[7]
  viability, T/C: 45.3%
[8]
  viability, T/C: 25.8%
[9]
  viability, T/C: 20.2%
[10]
  viability, T/C: 18.4%
[11]
  viability, T/C: 19.1%
[12]
  viability, T/C: 18.9%
[13]
  viability, T/C: 47.8%
[14]
  viability, T/C: 22.1%
[15]
  viability, T/C: 19.9%
[16]
  viability, T/C: 19.5%
[17]
  viability, T/C: 19.4%
[18]
  viability, T/C: 19.1%
[19]
  viability, T/C: 41%
[20]
  viability, T/C: 21.3%
[21]
  viability, T/C: 19.8%
[22]
  viability, T/C: 17.7%
[23]
  viability, T/C: 18.2%
[24]
  viability, T/C: 17.2%
[25]
  viability, T/C: 38.2%
[26]
  viability, T/C: 17.7%
[27]
  viability, T/C: 16.3%
[28]
  viability, T/C: 16.5%
[29]
  viability, T/C: 19.4%
[30]
  viability, T/C: 17.7%
[31]
  viability, T/C: 36.8%
[32]
  viability, T/C: 18.8%
[33]
  viability, T/C: 17.5%
[34]
  viability, T/C: 18.8%
[35]
  viability, T/C: 18.4%
[36]
  viability, T/C: 17.2%

## O=c1[nH]cc(F)c(=O)[nH]1 + Cc1[nH]c2ccc(F)cc2c1-c1nc2c3cccnc3c3ncccc3c2[nH]1
Second compound 0.0316 µM
  IC50: > 10 µM
Second compound 0.1 µM
  IC50: > 10 µM
Second compound 0.316 µM
  IC50: > 10 µM
Second compound 1 µM
  IC50: > 10 µM
Second compound 3.16 µM
  IC50: > 10 µM
Second compound 10 µM
  IC50: > 10 µM
[1]
  viability, T/C: 97.7%
[2]
  viability, T/C: 107%
[3]
  viability, T/C: 107%
[4]
  viability, T/C: 95.4%
[5]
  viability, T/C: 86%
[6]
  viability, T/C: 71.8%
[7]
  viability, T/C: 108%
[8]
  viability, T/C: 89.7%
[9]
  viability, T/C: 96.4%
[10]
  viability, T/C: 98.8%
[11]
  viability, T/C: 91.4%
[12]
  viability, T/C: 70.6%
[13]
  viability, T/C: 95.2%
[14]
  viability, T/C: 95.6%
[15]
  viability, T/C: 94%
[16]
  viability, T/C: 90.6%
[17]
  viability, T/C: 93.4%
[18]
  viability, T/C: 71.4%
[19]
  viability, T/C: 91.3%
[20]
  viability, T/C: 101%
[21]
  viability, T/C: 90.6%
[22]
  viability, T/C: 88.4%
[23]
  viability, T/C: 84.5%
[24]
  viability, T/C: 73.3%
[25]
  viability, T/C: 77.1%
[26]
  viability, T/C: 71.7%
[27]
  viability, T/C: 75.5%
[28]
  viability, T/C: 73.2%
[29]
  viability, T/C: 71.2%
[30]
  viability, T/C: 56.9%
[31]
  viability, T/C: 70.5%
[32]
  viability, T/C: 73%
[33]
  viability, T/C: 71.9%
[34]
  viability, T/C: 73%
[35]
  viability, T/C: 71.8%
[36]
  viability, T/C: 55.9%
